Patent US20230141101A1, “PDE4 INHIBITOR COMPOUND AND MEDICAL USE THEREOF” (Suzhou Longbotai Pharmaceuticals Co., Ltd., priority 2020, published 2023)

Tests used:
Format in all cases: biochemical
Details in all cases: 20 nM
[1] = biological target: T1, PDE4A1A (Homo sapiens, UniProt P27815); test: PDE4 inhibitory activity assay (FAM-cAMP enzymatic reaction), PDE4A1A
T1 construct: purchased BPS 60040
Outline: (§1)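 Inhibition rates from a fluorescence read gave IC50 values. Each enzyme (PDE4A1A, PDE4B1, PDE4D2) sat with compound for 15 min at room temperature; FAM-cAMP then started a 30 min room-temperature reaction, ended with stop solution and left 60 min more.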

[2] = biological target: T2, PDE4B1 (Homo sapiens, UniProt Q07343); test: PDE4 inhibitory activity assay (FAM-cAMP enzymatic reaction), PDE4B1
T2 construct: purchased BPS 60041
T2 sequence (Q07343 whole entry): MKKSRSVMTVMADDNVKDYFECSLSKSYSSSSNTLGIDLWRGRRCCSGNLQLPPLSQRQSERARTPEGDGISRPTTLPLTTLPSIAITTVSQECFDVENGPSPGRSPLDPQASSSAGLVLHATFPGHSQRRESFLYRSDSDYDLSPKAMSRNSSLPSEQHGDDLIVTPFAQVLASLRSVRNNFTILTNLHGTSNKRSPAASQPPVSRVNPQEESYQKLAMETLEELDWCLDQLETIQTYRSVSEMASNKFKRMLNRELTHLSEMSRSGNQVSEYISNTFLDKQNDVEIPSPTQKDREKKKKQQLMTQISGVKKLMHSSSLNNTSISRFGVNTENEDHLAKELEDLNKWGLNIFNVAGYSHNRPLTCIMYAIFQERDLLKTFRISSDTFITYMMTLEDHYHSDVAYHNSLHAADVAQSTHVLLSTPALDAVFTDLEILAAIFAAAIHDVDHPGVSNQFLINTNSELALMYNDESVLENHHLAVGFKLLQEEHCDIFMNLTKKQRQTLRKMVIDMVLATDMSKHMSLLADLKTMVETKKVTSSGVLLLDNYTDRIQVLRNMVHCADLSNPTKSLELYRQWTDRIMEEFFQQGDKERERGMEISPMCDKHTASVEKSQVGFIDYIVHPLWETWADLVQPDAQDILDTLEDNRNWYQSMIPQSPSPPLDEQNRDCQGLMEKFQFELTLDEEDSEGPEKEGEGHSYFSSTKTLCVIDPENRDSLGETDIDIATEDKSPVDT
Outline: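 Each isoform is incubated with test compound for 15 min at room temperature before FAM-cAMP substrate starts a 30-min reaction.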

[3] = biological target: PDE4D2 (Homo sapiens, UniProt Q08499); test: PDE4 inhibitory activity assay (FAM-cAMP enzymatic reaction), PDE4D2
PDE4D2, sequence (Q08499 303-809): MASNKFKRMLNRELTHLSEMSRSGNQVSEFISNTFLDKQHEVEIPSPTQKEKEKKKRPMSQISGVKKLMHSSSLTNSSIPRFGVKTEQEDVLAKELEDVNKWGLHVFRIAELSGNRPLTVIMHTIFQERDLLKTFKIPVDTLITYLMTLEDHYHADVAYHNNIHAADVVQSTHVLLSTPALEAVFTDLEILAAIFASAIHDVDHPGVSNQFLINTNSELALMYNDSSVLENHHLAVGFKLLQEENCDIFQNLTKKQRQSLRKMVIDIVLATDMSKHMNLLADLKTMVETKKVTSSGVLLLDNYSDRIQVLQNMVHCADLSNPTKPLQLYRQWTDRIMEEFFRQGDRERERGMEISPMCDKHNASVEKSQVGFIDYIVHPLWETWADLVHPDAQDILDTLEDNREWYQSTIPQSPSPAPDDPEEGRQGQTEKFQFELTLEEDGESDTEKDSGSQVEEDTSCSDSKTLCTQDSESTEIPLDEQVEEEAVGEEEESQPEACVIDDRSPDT
Outline: as §1

T1 sequence (P27815 1-647 isoform P27815-4): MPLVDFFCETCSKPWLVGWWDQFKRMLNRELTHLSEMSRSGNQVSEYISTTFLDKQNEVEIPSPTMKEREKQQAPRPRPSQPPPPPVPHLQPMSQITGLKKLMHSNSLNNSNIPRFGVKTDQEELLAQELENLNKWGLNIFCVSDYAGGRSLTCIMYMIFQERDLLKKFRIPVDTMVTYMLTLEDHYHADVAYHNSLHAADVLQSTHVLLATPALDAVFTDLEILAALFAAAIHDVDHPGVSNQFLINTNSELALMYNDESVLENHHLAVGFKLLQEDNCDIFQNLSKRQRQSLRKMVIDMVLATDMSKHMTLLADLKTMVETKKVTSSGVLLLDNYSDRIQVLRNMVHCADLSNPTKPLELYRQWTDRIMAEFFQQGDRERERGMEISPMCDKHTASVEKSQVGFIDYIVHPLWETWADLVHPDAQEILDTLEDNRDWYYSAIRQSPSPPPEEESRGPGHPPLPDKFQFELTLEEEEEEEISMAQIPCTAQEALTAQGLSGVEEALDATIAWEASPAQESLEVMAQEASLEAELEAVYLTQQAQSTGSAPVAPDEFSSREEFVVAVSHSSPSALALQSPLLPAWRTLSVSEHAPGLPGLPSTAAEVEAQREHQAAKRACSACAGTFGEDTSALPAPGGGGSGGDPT

SMILES | PDE4 A1 inhibitory effect at 20 nM [1] | PDE4 B1 inhibitory effect at 20 nM [2] | PDE4 D2 inhibitory effect at 20 nM [3]
CCOc1nc([C@@H](CS(C)(=O)=O)n2c(=O)n(CCOC)c3cc(-c4ccccn4)cnc32)ccc1OC [Ex. 125, (S)-3-(1-(6-ethoxy-5-methoxypyridin-2-yl)-2-(methylsulfonyl)ethyl)-1-(2-methoxyethyl)-6-(pyridin-2-yl)-1H-imidazo[4,5-b]pyridin-2(3H)-one] | + | + | +
CCOc1nc([C@@H](CS(C)(=O)=O)n2c(=O)[nH]c3cc(-c4cc(F)ccc4OC)ccc32)ccc1OC [Ex. 186, (S)-5-(5-fluoro-2-methoxyphenyl)-1-(1-(6-ethoxy-5-methoxypyridin-2-yl)-2-(methylsulfonyl)ethyl)-1H-benzo[d]imidazol-2(3H)-one] | + | + | +
CCOc1nc([C@H](CS(C)(=O)=O)n2c(=O)n(CC(F)(F)F)c3c(C)c(-c4ccccc4F)cnc32)ccc1OC [Ex. 52, (R)-3-(1-(6-ethoxy-5-methoxypyridin-2-yl)-2-(methylsulfonyl)ethyl)-6-(2-fluorophenyl)-7-methyl-1-(2,2,2-trifluoroethyl)-1H-imidazo[4,5-b]pyridin-2(3H)-one] | − | − | −
CCOc1nc([C@@H](CS(C)(=O)=O)n2c(=O)[nH]c3c(C)c(-c4ccc(C)cc4F)cnc32)ccc1OC [Ex. 40, (S)-6-(2-fluoro-4-methylphenyl)-3-(1-(6-ethoxy-5-methoxypyridin-2-yl)-2-(methylsulfonyl)ethyl)-7-methyl-1H-imidazo[4,5-b]pyridin-2(3H)-one] | + | + | +
CCOc1nc([C@@H](CS(C)(=O)=O)n2c(=O)[nH]c3cc(-c4ccccc4)ccc32)ccc1OC [Ex. 130, (S)-1-(1-(6-ethoxy-5-methoxypyridin-2-yl)-2-(methylsulfonyl)ethyl)-5-phenyl-1H-benzo[d]imidazol-2(3H)-one] | + | + | +
CCOc1nc([C@@H](CS(C)(=O)=O)n2c(=O)n(C)c3cc(-c4cc(F)ccc4OC)ccc32)ccc1OC [Ex. 187, (S)-5-(5-fluoro-2-methoxyphenyl)-1-(1-(6-ethoxy-5-methoxypyridin-2-yl)-2-(methylsulfonyl)ethyl)-3-methyl-1H-benzo[d]imidazol-2(3H)-one] | + | + | +
CCOc1nc([C@H](CS(C)(=O)=O)n2c(=O)[nH]c3c(C)c(-c4c(F)cccc4F)cnc32)ccc1OC [Ex. 24, (R)-6-(2,6-difluorophenyl)-3-(1-(6-ethoxy-5-methoxypyridin-2-yl)-2-(methylsulfonyl)ethyl)-7-methyl-1H-imidazo[4,5-b]pyridin-2(3H)-one] | − | − | −
CCOc1nc([C@H](CS(C)(=O)=O)n2c(=O)[nH]c3c(C)c(-c4cccc(F)c4F)cnc32)ccc1OC [Ex. 26, (R)-6-(2,3-difluorophenyl)-3-(1-(6-ethoxy-5-methoxypyridin-2-yl)-2-(methylsulfonyl)ethyl)-7-methyl-1H-imidazo[4,5-b]pyridin-2(3H)-one] | − | − | −
CCOc1nc([C@@H](CS(C)(=O)=O)n2c(=O)[nH]c3cc(Br)ccc32)ccc1OC [Ex. 129, (S)-5-bromo-1-(1-(6-ethoxy-5-methoxypyridin-2-yl)-2-(methylsulfonyl)ethyl)-1H-benzo[d]imidazol-2(3H)-one] | + | + | +
CCOc1nc([C@@H](CS(C)(=O)=O)n2c(=O)n(C)c3cc(-c4ccc(F)cc4C)cnc32)ccc1OC [Ex. 108, (S)-6-(4-fluoro-2-methylphenyl)-3-(1-(6-ethoxy-5-methoxypyridin-2-yl)-2-(methylsulfonyl)ethyl)-1-methyl-1H-imidazo[4,5-b]pyridin-2(3H)-one] | + | + | +
CCOc1nc([C@@H](CS(C)(=O)=O)n2c(=O)[nH]c3cc(-c4ccc(C)cc4F)cnc32)ccc1OC [Ex. 115] | + | + | +
CCOc1nc([C@@H](CS(C)(=O)=O)n2c(=O)[nH]c3cc(-c4ccc(C)cc4F)ccc32)ccc1OC [Ex. 179, (S)-5-(2-fluoro-4-methylphenyl)-1-(1-(6-ethoxy-5-methoxypyridin-2-yl)-2-(methylsulfonyl)ethyl)-1H-benzo[d]imidazol-2(3H)-one] | + | + | +
CCOc1nc([C@@H](CS(C)(=O)=O)n2c(=O)[nH]c3c(C)c(-c4cc(F)c(F)cc4F)cnc32)ccc1OC [Ex. 29, (S)-6-(2,4,5-trifluorophenyl)-3-(1-(6-ethoxy-5-methoxypyridin-2-yl)-2-(methylsulfonyl)ethyl)-7-methyl-1H-imidazo[4,5-b]pyridin-2(3H)-one] | + | + | +
CCOc1nc([C@@H](CS(C)(=O)=O)n2c(=O)n(C)c3cc(-c4ccccc4CC)ccc32)ccc1OC [Ex. 151, (S)-1-(1-(6-ethoxy-5-methoxypyridin-2-yl)-2-(methylsulfonyl)ethyl)-5-(2-ethylphenyl)-3-methyl-1H-benzo[d]imidazol-2(3H)-one] | + | + | +
CCOc1nc([C@H](CS(C)(=O)=O)n2c(=O)[nH]c3cc(-c4ccc(F)cc4)ccc32)ccc1OC [Ex. 136, (R)-1-(1-(6-ethoxy-5-methoxypyridin-2-yl)-2-(methylsulfonyl)ethyl)-5-(4-fluorophenyl)-1H-benzo[d]imidazol-2(3H)-one] | + | + | +
CCOc1nc([C@@H](CS(C)(=O)=O)n2c(=O)n(C)c3cc(-c4cccc(F)c4F)ccc32)ccc1OC [Ex. 153, (S)-5-(2,3-difluorophenyl)-1-(1-(6-ethoxy-5-methoxypyridin-2-yl)-2-(methylsulfonyl)ethyl)-3-methyl-1H-benzo[d]imidazol-2(3H)-one] | + | + | +
CCOc1nc([C@@H](CS(C)(=O)=O)n2c(=O)n(CC)c3cc(-c4ccccn4)cnc32)ccc1OC [Ex. 124, (S)-3-(1-(6-ethoxy-5-methoxypyridin-2-yl)-2-(methylsulfonyl)ethyl)-1-ethyl-6-(pyridin-2-yl)-1H-imidazo[4,5-b]pyridin-2(3H)-one] | + | + | +
CCOc1nc([C@@H](CS(C)(=O)=O)n2c(=O)[nH]c3cc(-c4ccc(C)cc4C)cnc32)ccc1OC [Ex. 99, (S)-6-(2,4-dimethylphenyl)-3-(1-(6-ethoxy-5-methoxypyridin-2-yl)-2-(methylsulfonyl)ethyl)-1H-imidazo[4,5-b]pyridin-2(3H)-one] | + | + | +
CCOc1nc([C@@H](CS(C)(=O)=O)n2c(=O)[nH]c3c(C)c(-c4cc(F)ccc4C)cnc32)ccc1OC [Ex. 36, (S)-6-(5-fluoro-2-methylphenyl)-3-(1-(6-ethoxy-5-methoxypyridin-2-yl)-2-(methylsulfonyl)ethyl)-7-methyl-1H-imidazo[4,5-b]pyridin-2(3H)-one] | + | + | +
CCOc1nc([C@@H](CS(C)(=O)=O)N2C(=O)c3csc(NC(=O)CN(CC)CC)c3C2=O)ccc1OC [Ex. 229, (S)-2-(diethylamino)-N-(5-(1-(6-ethoxy-5-methoxypyridin-2-yl)-2-(methylsulfonyl)ethyl)-4,6-dioxo-5,6-dihydro-4H-thieno[3,4-c]pyrrol-1-yl)acetamide] | + | + | +
CCOc1nc([C@@H](CS(C)(=O)=O)n2c(=O)[nH]c3cc(-c4ccccc4CC)ccc32)ccc1OC [Ex. 150, (S)-1-(1-(6-ethoxy-5-methoxypyridin-2-yl)-2-(methylsulfonyl)ethyl)-5-(2-ethylphenyl)-1H-benzo[d]imidazol-2(3H)-one] | + | + | +
CCOc1nc([C@@H](CS(C)(=O)=O)n2c(=O)n(C)c3cc(-c4cc(C)ccc4F)ccc32)ccc1OC [Ex. 176, (S)-5-(2-fluoro-5-methylphenyl)-1-(1-(6-ethoxy-5-methoxypyridin-2-yl)-2-(methylsulfonyl)ethyl)-3-methyl-1H-benzo[d]imidazol-2(3H)-one] | + | + | +
CCOc1nc([C@@H](CS(C)(=O)=O)n2c(=O)n(C)c3cc(-c4cccc(F)c4C)ccc32)ccc1OC [Ex. 174, (S)-5-(3-fluoro-2-methylphenyl)-1-(1-(6-ethoxy-5-methoxypyridin-2-yl)-2-(methylsulfonyl)ethyl)-3-methyl-1H-benzo[d]imidazol-2(3H)-one] | + | + | +
